In article PMC10319141, “Imidazoquinolines with improved pharmacokinetic properties induce a high IFNα to TNFα ratio in vitro and in vivo” (Frontiers in Immunology, 2023):
Where two headings read alike, the source gives them in different places.

Assays:
human TLR8 = molecular target: T1, human TLR8 (Homo sapiens, UniProt Q9NR97); test: HEK-Blue hTLR8 SEAP reporter assay; assay type: cell-based; details: for TLR8 activity rel. to assay max: average maximal SEAP secretion relative to maximum secretion observed in the assay; for SEAP secretion from HEK-Blue hTLR-8: in words
T1 construct: host or cells: HEK blue hTLR8 reporter cells
T1 sequence (Q9NR97 27-1041): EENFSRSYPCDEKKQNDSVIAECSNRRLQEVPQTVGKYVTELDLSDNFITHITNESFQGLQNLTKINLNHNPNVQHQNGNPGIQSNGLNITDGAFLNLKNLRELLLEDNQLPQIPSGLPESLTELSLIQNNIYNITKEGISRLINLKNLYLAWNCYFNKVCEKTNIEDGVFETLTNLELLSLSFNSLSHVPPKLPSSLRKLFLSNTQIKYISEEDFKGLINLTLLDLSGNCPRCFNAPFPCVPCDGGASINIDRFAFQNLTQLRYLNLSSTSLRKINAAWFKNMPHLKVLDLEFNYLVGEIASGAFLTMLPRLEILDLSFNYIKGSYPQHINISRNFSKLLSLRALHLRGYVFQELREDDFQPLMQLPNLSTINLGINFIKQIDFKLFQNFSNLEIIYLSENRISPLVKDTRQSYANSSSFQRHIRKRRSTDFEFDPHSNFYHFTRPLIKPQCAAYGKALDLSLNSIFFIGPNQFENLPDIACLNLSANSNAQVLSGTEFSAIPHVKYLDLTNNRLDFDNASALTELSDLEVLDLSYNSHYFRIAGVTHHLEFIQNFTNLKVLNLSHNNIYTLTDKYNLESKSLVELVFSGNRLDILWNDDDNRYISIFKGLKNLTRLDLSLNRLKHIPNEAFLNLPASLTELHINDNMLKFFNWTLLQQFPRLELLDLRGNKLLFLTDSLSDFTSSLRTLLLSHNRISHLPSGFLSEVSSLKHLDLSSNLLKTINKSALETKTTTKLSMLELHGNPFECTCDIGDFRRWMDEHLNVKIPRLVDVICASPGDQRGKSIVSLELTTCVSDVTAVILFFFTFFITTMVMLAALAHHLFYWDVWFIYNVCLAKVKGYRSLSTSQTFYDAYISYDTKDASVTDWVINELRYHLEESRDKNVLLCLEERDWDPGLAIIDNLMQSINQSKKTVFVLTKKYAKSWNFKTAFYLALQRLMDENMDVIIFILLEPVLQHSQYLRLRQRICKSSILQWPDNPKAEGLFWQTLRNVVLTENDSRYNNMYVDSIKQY
Description: HEK blue hTLR7 or hTLR8 reporter cells (Invivogen) were cultivated in DMEM High Glucose (Biowest) according to the manufacturer’s instructions. Cells were treated with test compounds and controls at various concentrations in serum-free DMEM and incubated at 37°C, 5% CO2 for 24 h before supernatants were collected.
Relative secreted embryonic alkaline phosphatase (SEAP) activity in the supernatants was determined by quantification of para-Nitrophenyl Phosphate (pNPP)-turnover. Supernatants were diluted 10-fold in a solution containing 1 mM MgCl2, 1 M diethanolamine and 1 mg/mL pNPP and incubated at RT for 15 min before the reaction was stopped by the addition of 0.25 volumes of 1 M NaOH. Absorbance was measured at 405 nm on a Versamax microplate reader (Molecular Devices) and normalized to the mean of >5 solvent controls.
To obtain reliable estimates, replicate measurements of a minimum of 2 experiments were normalized to the maximal SEAP activity of a compound in a given experiment and pooled before fitting a non-linear function to the data.

[1] = Compound concentrations in organs and blood after 3, 6, 12 µmol/kg s.c. (Figure 4A); assay type: in vivo, C57BL/6 mice; details: female, C57BL/6, mouse, sc; for concentration at 8 h: 8 h after treatment; for concentration at 1 h: whole blood (peripheral, tail), 1 h post application, whole blood
Description: All samples were extracted with 3 or 6 volumes acetonitrile containing terbuthylazine as an internal standard (ACN) relative to either sample weight or volume. Liquid samples (plasma, culture medium, cell suspensions in stability experiments) were diluted in either 3 (culture medium, cell suspensions) or 6 (plasma) volumes ACN, pellet and blood samples were extracted by addition of ACN followed by sonication for 5 min. Organ samples were digested with 0.5 µg/mg Proteinase K (Genaxxon) for 1 h at 50°C before being homogenized using a Fastprep FP-24 5G instrument (MP-Biomedicals). Homogenates were diluted with 6 volumes ACN and homogenized again. All extracts were cleared by centrifugation at ~20.000xg for 10 min at 4°C.
Quantification of analytes was performed on an Agilent 1260/1290 Infinity system fitted with an Agilent C18 Poroshell 120 column (4.6 x 50 mm, 2.7 µm) coupled to a triple quadrupole Sciex API 4000 MS/MS detector. The mobile phase was composed of water containing 0.1% formic acid (eluent A) and acetonitrile containing 0.1% formic acid (eluent B). Gradient used was: 5% B for 0.5 min, to 100% B in 4.5 min, 100% B for 2 min, to 5% B in 0.5 min, 5% for 2.5 min. MS detection parameters are listed in SI Table S1 .
Formulation. Test compounds were prepared for application in either 1% Tween 80, 9% PEG400 in ultrapure water (Biowest) (i.v., i.p., p.o. application) or 5 mM citric acid in 0.9% saline (Braun) (subcutaneous application). If compounds were administered subcutaneously, injections were carried out into the neck crease.
Collection of Samples. Mice were bled from the tail vein at various timepoints. Heparin (Sigma) or K2-EDTA (Sigma) was added to blood samples to a final […] concentration of 10-15 Unit or 5 mM. Plasma was generated by centrifugation at 6800xg for 8 min at 4°C and stored at -80°C until analyzed by ELISA or CBA. Animals were sacrificed after the indicated time points by CO2 inhalation. Heart blood and organs for compound quantification by HPLC-MS/MS were collected post mortem and stored at –20°C until extracted as described above.
(A) Organs were sampled 8 h after treatment and compound concentration was determined via HPLC-MS/MS. Data are presented as mean ± SD. (B) Cytokine levels in tail plasma over time were determined via cytometric bead array. At each sampling timepoint the plasma of mice in one treatment group was pooled.

Human peripheral blood = test: Full blood stimulation assay (TNFα/IFNα by ELISA); assay type: cell-based; details: 6 h, 8 donors, normalized to maximal concentration per donor; in words
Description: Human peripheral blood of healthy donors was diluted in an equal volume of culture medium as described in 3.2, blood was treated with test compounds or controls at various concentrations and incubated at 37°C, 5% CO2 for 6 h. Cells were pelleted by centrifugation at 400xg for 5 min and supernatants were collected.
Cytokine concentrations in samples were quantified either by ELISA (hTNFα, R&D Systems; hIFNα, Mabtech) or cytometric bead arrays (CBA, LegendPlex mouse anti-virus response panel, BioLegend) according to the manufacturer’s instructions. CBAs were acquired on a ZE5 Cell Analyzer (Bio-Rad) and analyzed using the LegendPlex Software Suite (Qognit/BioLegend). Absorbance of ELISA-samples was quantified using a Versamax microplate reader (Molecular Devices).

[2] = kidney, read-out: concentration in kidney
[3] = liver, read-out: concentration in liver

| SMILES | TLR8 activity rel. to assay max (human TLR8) | SEAP secretion from HEK-Blue hTLR-8 (human TLR8) | concentration at 8 h [1, 2] | concentration at 8 h [1, 3] | concentration at 1 h [1] | relative IFNα induction in human blood (Human peripheral blood) | concentration at 8 h ([1]; lung, read-out: concentration in lung) | TNFα concentrations in supernatants of human blood (Human peripheral blood) |
| --- | --- | --- | --- | --- | --- | --- | --- | --- |
| CCCCc1nc2c(N)nc3ccccc3c2n1CCC1CCN(C(=O)CN(C)CC(=O)N(C)C2CC(C)OC(OC3C(C)C(OC4CC(C)(OC)C(O)C(C)O4)C(C)C(=O)OC(CC)C(C)(O)C(O)C(C)N(C)CC(C)CC3(C)O)C2O)CC1 (stereo not drawn) [A1-mac] | 5% ± 3% | close to baseline | 5480 nM | 5100 nM | 696 nM | robust and similar |  |  |
| CCCCc1nc2c(N)nc3ccccc3c2n1CCC1CCNCC1 [A1] | 11% ± 8% | close to baseline | 636 nM | 173 nM | 1560 nM | robust and similar | 868 nM |  |
| CCCCc1nc2c(N)nc3ccccc3c2n1CC1CCN(C(=O)CN(C)CC(=O)N(C)[C@H]2C[C@@H](C)O[C@@H](O[C@@H]3[C@@H](C)[C@H](O[C@H]4C[C@@](C)(OC)[C@@H](O)[C@H](C)O4)[C@@H](C)C(=O)O[C@H](CC)[C@@](C)(O)[C@H](O)[C@@H](C)N(C)C[C@H](C)C[C@@]3(C)O)[C@@H]2O)CC1 [A2-mac] | 4% ± 1% | close to baseline |  |  |  |  |  |  |
| CCOCc1nc2c(N)nc3ccccc3c2n1CC(C)(C)O [RSQ, Resiquimod, reference compound] | 96% ± 4% |  |  |  | 175 nM |  |  | highest TNFα concentrations |
